ChEMBL document CHEMBL1201862, “PubChem BioAssay data set” (2004)
Active and inactive are the calls of the source.

What was measured:
Streptokinase A = target: T1, Streptokinase A (Streptococcus pyogenes serotype M1, UniProt P10520); assay: S. pyogenes streptokinase expression inhibitors, potency, dose response, plasminogen activation absorbance, OD405 (AID 1914); format: functional, Streptococcus pyogenes M1 GAS;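 note: secreted streptokinase activity via plasminogen activation per viability signal from cell pellet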
T1 sequence (P10520 whole entry): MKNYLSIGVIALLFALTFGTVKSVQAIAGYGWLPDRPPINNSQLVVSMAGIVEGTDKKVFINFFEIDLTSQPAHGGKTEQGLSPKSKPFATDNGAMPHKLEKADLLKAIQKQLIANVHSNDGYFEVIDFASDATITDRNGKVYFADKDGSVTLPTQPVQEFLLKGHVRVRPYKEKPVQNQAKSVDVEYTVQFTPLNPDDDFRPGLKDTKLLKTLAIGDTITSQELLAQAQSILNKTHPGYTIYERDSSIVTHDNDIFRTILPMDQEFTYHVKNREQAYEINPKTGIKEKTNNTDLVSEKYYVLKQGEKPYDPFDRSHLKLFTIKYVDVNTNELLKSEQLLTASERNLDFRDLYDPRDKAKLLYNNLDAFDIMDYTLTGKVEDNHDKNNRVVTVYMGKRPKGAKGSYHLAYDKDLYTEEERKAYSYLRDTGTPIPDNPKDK

[1] = tested on: Streptococcus sp. 'group A'; assay: growth inhibition of control SK(-) GAS strain, dose response, counter-screen for streptokinase expression inhibitor project, luminescence, kanamycin, BacTiterGlo, confirmation (AID 1900); format: functional, organism-based
Streptococcus [2] = assay: Luminescence Microorganism-Based Dose Response Follow up to Identify Compounds Cytotoxic to Streptococcus. [Related pubchem assays: 1677 (Project Summary), 1915, 1914, 1902 (Retest at Dose), 1900 (Counter Screen), 1662 (Primary HTS)]; format: functional, organism-based
Streptococcus [3] = assay: Group A Streptococcus viability loss, dose response, counter-screen for streptokinase expression inhibitor project, luminescence, BacTiterGlo (AID 1915); format: functional, organism-based;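 note: potency for reduction of bacterial viability or growth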
[4] = target: Disintegrin and metalloproteinase domain-containing protein 17 (Homo sapiens, UniProt P78536); assay: ADAM17 protease inhibitors, dose response, counter-screen for ADAM10 exosite inhibitor project, biochemical, quenched FRET substrate (AID 743253)
Leucine aminopeptidase = target: T2, Leucine aminopeptidase (Plasmodium falciparum 3D7, UniProt Q8IL11); assay: P. falciparum M17LAP inhibitors, primary screen, biochemical, fluorogenic H-Leu-NHMec substrate, 1536-well (AID 1619); format: functional
T2 sequence (Q8IL11 whole entry): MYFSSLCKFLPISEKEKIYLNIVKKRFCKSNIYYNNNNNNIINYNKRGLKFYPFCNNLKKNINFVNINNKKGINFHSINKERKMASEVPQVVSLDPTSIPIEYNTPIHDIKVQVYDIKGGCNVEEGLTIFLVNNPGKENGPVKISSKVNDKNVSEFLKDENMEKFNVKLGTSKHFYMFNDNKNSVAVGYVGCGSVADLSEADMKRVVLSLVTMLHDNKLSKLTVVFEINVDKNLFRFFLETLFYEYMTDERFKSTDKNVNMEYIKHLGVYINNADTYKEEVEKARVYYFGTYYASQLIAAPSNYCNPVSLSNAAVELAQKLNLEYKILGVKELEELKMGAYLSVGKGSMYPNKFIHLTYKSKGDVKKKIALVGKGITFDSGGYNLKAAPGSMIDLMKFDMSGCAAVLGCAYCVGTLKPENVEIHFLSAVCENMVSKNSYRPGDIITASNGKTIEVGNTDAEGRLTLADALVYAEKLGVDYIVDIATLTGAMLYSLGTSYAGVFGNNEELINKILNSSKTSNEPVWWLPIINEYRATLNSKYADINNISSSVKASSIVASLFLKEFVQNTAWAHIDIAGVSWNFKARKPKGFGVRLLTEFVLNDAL

[5] = target: Lysosomal acid glucosylceramidase (Homo sapiens, UniProt P04062); assay: Dose response cell-based high throughput screening assay to identify enhancers of beta-glucosidase activity. [Related pubchem assays: 784 ]; format: functional
[6] = inhibitors of fibronectin matrix deposition, dose response, AH1F cells, Alexa488-FN fluorescence, cherry-picks (AID 1035475); format: functional, cell-based
[7] = Late stage assay provider results from the probe development effort to identify selective inhibitors of heat shock protein 90 (HSP90): Absorbance-based cell proliferation assay in SKBR3 cells.; format: functional; conditions: SK-BR-3
HT-1080 = assay: cytotoxicity in HT1080 fibrosarcoma cells, cell-based, fluorescence readout (AID 620); format: functional; conditions: Homo sapiens
[8] = Late stage assay provider results from the probe development effort to identify selective inhibitors of heat shock protein 90 (HSP90): Absorbance-based cell proliferation assay in MCF7 cells.; format: functional
[9] = HEK293 cell cytotoxicity, dose response, cytotoxicity control, cherry-picks, set 5 (AID 1053117); format: functional, cell-based
[10] = target: Luciferin 4-monooxygenase (Photinus pyralis, UniProt P08659); assay: Counter Screen for Luciferase-based Assay Positives. [Related pubchem assays: 620, 618, 411 ]
Cytochrome P450 2C9 = Cytochrome P450 2C9 (Homo sapiens, UniProt P11712); conditions: Potency
[11] = target: T3, Dual specificity protein phosphatase 6 (Rattus norvegicus, UniProt Q64346); format: functional
T3 sequence (Q64346 whole entry): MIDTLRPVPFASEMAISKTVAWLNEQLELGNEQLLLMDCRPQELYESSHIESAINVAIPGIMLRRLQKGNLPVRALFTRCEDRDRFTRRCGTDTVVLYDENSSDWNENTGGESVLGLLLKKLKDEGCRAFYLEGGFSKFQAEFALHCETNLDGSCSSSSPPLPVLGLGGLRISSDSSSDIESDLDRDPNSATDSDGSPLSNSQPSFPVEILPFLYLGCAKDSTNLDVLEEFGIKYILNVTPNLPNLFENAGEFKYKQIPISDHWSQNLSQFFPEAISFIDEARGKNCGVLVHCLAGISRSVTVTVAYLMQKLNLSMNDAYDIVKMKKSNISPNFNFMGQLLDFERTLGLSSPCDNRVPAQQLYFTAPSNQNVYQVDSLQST

[12] = target: Heat shock 70 kDa protein 1A (Homo sapiens, UniProt P0DMV8); assay: Hsp70 inhibitors, SAR follow-up, biochemical, fluorescence polarization (AID 1072)
[13] = target: T3, Dual specificity protein phosphatase 6
[14] = target: T4, Tyrosine-protein phosphatase non-receptor type 7 (Homo sapiens, UniProt P35236); format: functional
T4 sequence (P35236 whole entry): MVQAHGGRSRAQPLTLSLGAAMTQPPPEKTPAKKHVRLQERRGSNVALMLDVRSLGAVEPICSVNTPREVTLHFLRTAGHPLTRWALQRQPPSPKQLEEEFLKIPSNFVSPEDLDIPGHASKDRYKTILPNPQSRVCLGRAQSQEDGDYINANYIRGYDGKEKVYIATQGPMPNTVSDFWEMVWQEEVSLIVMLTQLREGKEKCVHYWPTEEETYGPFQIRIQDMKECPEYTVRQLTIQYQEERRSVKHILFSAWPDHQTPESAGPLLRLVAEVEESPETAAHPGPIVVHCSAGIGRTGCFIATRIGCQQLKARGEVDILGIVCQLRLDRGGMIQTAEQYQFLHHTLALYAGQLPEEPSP

[15] = target: Glyceraldehyde-3-phosphate dehydrogenase (Homo sapiens, UniProt P04406)
[16] = target: Heat shock cognate 71 kDa protein (Homo sapiens, UniProt P11142); assay: In Vitro Hsc70 Dose Response Fluorescence Polarization Assay. [Related pubchem assays: 1072 ]
INS1 = assay: beta cell apoptosis inhibitors, cytokine rescue, dose response, luminescence, retest (AID 449756); format: functional, cell-based; conditions: Rattus norvegicus;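 note: cell death triggered by IL-1 beta plus TNF-alpha plus IFN-gamma mixture; protective hits raise ATP signal compared with cytokine alone wells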
cells [17] = format: functional, cell-based
cells [18] = format: functional, cell-based; remark: listed apart in the source
[19] = cytotoxicity in HEK-293T cells, dose response, cytotoxicity control for TCR NF-kB inhibitor project, luminescence, T-cell screen hits (AID 489026); format: functional, cell-based;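 note: cells exposed to compound about 14 hours before the viability readout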
[20] = HepG2 cell cytotoxicity, dose response, cytotoxicity control for non-replicating M. tuberculosis project (AID 489018); format: functional; conditions: Mycobacterium tuberculosis
[21] = THP-1 cell cytotoxicity, dose response, cytotoxicity control for non-replicating M. tuberculosis project (AID 489025); format: functional
[22] = Luminescence-based counterscreen assay for KLF5 inhibitors: dose response cell-based high throughput screening assay to identify cytotoxic compounds using the IEC-6 intestinal epithelial cell line. [Related pubchem assays: 1700 (Primary screen.), 1834 (Confirmation screen.), 1858 (Summary AID.), 1905 (Counterscreen.)]; format: functional
[23] = Vero E6 cell cytotoxicity, dose response, cytotoxicity control for non-replicating M. tuberculosis project, secondary assay (AID 492998); format: functional, VeroE6; conditions: Vero C1008
[24] = target: T5, Microphthalmia-associated transcription factor (Homo sapiens, UniProt O75030); assay: TRPM1 promoter luciferase signal decrease, dose response, MITF inhibitor project, cell-based, SK-MEL-5, cherry-picked, set 3 (AID 493073); format: functional
T5 sequence (O75030 whole entry): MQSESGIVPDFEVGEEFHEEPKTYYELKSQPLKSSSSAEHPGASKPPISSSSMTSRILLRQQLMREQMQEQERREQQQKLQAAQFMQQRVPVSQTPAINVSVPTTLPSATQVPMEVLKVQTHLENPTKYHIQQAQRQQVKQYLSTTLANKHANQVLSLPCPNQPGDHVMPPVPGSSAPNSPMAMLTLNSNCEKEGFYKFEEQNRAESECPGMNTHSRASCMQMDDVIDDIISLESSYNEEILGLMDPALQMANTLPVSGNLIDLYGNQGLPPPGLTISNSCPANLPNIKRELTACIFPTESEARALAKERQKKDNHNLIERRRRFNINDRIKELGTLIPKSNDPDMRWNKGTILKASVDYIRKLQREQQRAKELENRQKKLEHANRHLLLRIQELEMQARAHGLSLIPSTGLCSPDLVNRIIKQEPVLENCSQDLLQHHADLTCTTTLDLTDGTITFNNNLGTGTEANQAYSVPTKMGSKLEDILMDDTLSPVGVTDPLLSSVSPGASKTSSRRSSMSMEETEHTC

[25] = Luminescence Cell-Based Dose Response HTS to Identify Inhibitors of 5'UTR Stem-Loop Driven Prion Protein mRNA Translation in H4 Neuroglioblastoma Cells. [Related pubchem assays: 1827 (Project Summary), 1813 (Primary HTS)]; format: functional
HEK293 = assay: inhibitors of LMP1-driven NF-kB reporter, dose response, cell-based, HEK293, luciferase, cherry-pick (AID 588343); format: functional; conditions: Homo sapiens
Estrogen receptor = target: T6, Estrogen receptor (Homo sapiens, UniProt P03372); assay: potentiators of ERα–SRC-1 coactivator binding, dose response, biochemical, TR-FRET, ERα LBD (AID 737)
T6 sequence (P03372 whole entry): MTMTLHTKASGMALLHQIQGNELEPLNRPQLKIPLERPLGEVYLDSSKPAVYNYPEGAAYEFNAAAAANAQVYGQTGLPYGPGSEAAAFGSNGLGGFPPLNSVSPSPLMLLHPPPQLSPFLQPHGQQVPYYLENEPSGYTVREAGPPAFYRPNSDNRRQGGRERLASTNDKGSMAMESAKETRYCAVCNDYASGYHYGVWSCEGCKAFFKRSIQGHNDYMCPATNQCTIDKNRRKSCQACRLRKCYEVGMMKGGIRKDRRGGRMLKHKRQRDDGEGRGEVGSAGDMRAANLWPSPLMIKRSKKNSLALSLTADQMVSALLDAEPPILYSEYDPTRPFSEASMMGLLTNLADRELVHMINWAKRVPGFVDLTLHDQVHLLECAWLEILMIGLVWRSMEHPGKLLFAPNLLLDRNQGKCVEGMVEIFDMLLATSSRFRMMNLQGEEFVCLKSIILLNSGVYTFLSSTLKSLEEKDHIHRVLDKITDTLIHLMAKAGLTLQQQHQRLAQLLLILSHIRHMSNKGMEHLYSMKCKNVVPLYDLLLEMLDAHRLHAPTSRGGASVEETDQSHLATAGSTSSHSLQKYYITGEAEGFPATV

[26] = target: Mothers against decapentaplegic homolog 3 (Homo sapiens, UniProt P84022); assay: Smad3 binding inhibitors, lysate ELISA, dose response, cell lysate, secondary confirmation, chemiluminescent ELISA, HEK293 lysate (AID 1058); format: functional
Mothers against decapentaplegic homolog 3, sequence (P84022 whole entry): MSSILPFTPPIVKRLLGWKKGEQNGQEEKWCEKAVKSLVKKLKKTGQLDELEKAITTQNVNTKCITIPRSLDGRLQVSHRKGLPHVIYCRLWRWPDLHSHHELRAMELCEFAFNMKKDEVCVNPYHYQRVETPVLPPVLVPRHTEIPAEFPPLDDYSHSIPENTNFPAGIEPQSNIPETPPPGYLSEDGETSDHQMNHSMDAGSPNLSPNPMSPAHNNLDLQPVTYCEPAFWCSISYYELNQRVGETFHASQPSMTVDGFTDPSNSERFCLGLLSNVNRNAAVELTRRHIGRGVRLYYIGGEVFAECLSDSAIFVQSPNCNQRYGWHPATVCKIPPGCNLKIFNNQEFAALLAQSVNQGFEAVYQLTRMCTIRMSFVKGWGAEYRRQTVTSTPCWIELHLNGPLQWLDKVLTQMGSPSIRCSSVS

Lysosomal acid glucosylceramidase, sequence (P04062 whole entry): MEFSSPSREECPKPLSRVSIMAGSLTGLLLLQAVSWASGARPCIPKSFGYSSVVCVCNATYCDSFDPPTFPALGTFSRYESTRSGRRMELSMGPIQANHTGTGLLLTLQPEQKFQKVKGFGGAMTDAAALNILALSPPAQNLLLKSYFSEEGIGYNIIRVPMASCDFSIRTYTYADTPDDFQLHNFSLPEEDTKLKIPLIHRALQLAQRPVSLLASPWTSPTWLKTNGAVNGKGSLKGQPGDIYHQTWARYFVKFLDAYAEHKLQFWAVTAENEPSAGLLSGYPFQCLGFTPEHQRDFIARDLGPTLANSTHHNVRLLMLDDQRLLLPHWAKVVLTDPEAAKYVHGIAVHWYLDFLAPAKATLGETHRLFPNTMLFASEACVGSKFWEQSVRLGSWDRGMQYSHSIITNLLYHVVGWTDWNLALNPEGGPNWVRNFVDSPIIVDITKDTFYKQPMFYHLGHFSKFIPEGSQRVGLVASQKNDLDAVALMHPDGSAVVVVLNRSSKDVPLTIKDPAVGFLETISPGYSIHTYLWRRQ
Heat shock cognate 71 kDa protein, sequence (P11142 whole entry): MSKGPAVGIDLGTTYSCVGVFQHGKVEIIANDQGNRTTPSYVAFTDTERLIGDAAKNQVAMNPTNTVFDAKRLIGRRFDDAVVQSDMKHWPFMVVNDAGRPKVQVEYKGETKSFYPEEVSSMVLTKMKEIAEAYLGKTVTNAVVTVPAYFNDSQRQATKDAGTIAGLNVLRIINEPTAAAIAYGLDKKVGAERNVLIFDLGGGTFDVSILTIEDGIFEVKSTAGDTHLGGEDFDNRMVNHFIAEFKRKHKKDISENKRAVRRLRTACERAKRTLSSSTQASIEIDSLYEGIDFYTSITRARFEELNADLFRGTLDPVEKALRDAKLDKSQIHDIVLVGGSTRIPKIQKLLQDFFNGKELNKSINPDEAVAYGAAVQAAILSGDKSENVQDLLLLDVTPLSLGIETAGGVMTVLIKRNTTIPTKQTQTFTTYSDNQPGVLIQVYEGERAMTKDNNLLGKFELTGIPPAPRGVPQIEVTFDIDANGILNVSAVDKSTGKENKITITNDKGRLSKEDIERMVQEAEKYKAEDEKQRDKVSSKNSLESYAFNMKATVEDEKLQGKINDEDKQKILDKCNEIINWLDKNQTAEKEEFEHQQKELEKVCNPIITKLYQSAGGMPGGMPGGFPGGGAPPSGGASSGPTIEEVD
Cytochrome P450 2C9, sequence (P11712 whole entry): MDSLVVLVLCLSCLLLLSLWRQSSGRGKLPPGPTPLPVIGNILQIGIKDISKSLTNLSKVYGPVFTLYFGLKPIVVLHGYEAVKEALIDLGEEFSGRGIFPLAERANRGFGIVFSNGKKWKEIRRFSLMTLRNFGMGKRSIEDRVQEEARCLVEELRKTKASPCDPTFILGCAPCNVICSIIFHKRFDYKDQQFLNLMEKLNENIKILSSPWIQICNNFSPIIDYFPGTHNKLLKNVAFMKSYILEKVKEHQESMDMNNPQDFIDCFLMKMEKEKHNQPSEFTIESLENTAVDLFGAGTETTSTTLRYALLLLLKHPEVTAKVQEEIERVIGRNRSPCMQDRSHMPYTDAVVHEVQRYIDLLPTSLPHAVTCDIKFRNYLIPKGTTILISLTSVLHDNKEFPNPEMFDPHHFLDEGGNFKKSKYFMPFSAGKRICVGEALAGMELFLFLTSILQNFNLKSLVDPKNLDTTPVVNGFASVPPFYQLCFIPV
Heat shock 70 kDa protein 1A, sequence (P0DMV8 whole entry): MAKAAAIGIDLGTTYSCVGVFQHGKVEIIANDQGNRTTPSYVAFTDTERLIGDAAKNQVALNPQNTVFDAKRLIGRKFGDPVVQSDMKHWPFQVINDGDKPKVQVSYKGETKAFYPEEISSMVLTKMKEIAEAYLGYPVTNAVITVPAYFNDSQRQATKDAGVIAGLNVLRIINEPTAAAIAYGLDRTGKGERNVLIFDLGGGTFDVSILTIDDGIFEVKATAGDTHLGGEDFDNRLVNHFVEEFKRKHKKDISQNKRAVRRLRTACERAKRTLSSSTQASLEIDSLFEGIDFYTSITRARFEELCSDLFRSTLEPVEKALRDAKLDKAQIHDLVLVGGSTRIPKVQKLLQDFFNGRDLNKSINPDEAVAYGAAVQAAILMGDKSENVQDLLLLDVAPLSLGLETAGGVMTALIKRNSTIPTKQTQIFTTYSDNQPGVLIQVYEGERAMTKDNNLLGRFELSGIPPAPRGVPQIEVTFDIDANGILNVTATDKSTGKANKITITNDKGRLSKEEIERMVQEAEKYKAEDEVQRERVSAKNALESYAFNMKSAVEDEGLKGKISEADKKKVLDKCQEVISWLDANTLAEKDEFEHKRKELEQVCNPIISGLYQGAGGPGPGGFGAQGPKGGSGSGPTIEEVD
Luciferin 4-monooxygenase, sequence (P08659 whole entry): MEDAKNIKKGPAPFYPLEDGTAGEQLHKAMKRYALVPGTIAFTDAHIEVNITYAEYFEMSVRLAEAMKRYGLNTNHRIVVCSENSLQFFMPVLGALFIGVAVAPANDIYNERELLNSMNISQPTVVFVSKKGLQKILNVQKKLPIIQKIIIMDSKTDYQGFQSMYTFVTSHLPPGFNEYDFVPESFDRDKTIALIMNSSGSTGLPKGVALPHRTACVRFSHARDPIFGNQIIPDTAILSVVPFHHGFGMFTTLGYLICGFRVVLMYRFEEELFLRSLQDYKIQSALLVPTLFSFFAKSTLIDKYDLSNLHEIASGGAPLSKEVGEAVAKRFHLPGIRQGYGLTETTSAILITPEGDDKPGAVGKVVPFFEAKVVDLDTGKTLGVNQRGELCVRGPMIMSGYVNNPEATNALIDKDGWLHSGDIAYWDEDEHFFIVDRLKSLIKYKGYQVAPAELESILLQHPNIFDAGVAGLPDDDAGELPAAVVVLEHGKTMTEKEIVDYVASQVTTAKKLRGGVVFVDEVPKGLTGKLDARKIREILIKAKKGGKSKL
Disintegrin and metalloproteinase domain-containing protein 17, sequence (P78536 whole entry, the tested form may be a part): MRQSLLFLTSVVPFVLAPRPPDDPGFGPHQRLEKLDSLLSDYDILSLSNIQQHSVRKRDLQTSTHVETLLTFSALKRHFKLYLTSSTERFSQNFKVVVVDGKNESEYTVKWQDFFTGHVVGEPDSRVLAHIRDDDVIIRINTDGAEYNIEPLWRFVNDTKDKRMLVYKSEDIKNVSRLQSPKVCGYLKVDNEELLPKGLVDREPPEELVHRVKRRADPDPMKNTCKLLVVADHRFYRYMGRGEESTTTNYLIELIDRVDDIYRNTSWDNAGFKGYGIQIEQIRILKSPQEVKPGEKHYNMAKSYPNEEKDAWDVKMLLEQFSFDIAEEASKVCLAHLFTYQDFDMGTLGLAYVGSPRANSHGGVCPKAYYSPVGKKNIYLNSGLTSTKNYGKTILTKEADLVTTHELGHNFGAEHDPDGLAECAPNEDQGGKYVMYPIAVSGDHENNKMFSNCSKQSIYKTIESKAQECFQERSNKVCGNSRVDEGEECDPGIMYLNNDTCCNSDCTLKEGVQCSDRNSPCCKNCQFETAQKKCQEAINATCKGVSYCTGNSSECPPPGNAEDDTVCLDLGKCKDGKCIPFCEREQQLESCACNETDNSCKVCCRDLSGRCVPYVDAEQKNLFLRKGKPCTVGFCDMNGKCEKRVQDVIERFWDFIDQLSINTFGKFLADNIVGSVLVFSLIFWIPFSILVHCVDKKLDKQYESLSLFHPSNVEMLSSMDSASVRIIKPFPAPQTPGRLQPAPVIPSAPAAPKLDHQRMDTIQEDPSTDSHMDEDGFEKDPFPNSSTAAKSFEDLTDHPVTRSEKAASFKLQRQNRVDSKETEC
Glyceraldehyde-3-phosphate dehydrogenase, sequence (P04406 whole entry): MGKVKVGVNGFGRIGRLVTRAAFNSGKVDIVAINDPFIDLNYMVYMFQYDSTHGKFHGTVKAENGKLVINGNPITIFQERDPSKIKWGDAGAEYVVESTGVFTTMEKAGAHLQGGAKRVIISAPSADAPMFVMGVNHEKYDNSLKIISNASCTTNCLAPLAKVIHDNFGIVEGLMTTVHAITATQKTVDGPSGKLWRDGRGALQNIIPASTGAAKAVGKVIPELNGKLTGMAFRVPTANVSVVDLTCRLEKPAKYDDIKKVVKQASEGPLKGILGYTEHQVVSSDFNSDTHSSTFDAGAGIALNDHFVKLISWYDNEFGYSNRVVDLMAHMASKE

Cc1cccc(C)c1OCC(O)Cn1c2ccccc2c2ccccc21 (stereo not drawn)
EC50 (Streptokinase A): 3.98 µM (active) | EC50 [1]: 6.75 µM (active) | EC50 (Streptococcus [2]): 9.21 µM (active) | EC50 (Streptococcus [3]): 7.9 µM (active) | IC50 [4]: > 69.5 µM (inactive)

O=C(CN1C(=O)c2ccccc2S1(=O)=O)NCCSC1CCCCC1
IC50 (Leucine aminopeptidase): 9.32 µM (active) | EC50 [5]: > 10 µM (not active)

CC(C)CNC(=O)c1coc(=O)c(Br)c1
AC50 [6]: 23.9 µM (active) | IC50 [7]: 22 µM (inactive) | EC50 (HT-1080): 20.4 µM (active) | IC50 [8]: 7.5 µM (active) | AC50 [9]: > 52 µM (inactive) | EC50 [10]: 1.83 µM (active)

CCOC(=O)OCC1OC(c2ccccc2)C=CC1Oc1ccc(F)cc1C (stereo not drawn)
AC50 (Cytochrome P450 2C9): 3.16 µM (inconclusive)

CCCCOC(=O)c1ccc2c(c1)C1C=CCC1C(C(=O)O)N2 (stereo not drawn)
IC50 [11]: 4.02 µM (active) | IC50 [12]: 63.3 µM (active) | IC50 [13]: 41.8 µM (active) | IC50 [14]: 10.4 µM (active) | IC50 [15]: 76.6 µM (active) | IC50 [16]: > 100 µM (not active)

COc1ccc(N/N=C/c2c(C(=O)O)ccc3ccccc23)cc1
AC50 (INS1): 0.786 µM (active) | EC50 (cells [17]): > 350 µM (not active) | EC50 (cells [18]): 9.66 µM (active) | IC50 [19]: > 80 µM (inactive) | CC50 [20]: 4.9 µM (active) | CC50 [21]: 0.364 µM (active) | IC50 [22]: 37 µM (not active) | CC50 [23]: 2 µM (active) | AC50 [24]: 5.11 µM (active) | EC50 [25]: 9.27 µM (active) | AC50 (HEK293): 4.56 µM (active)

C[C@]12CC[C@@H]3c4ccc(O)cc4C(=O)C[C@H]3[C@@H]1CC[C@@H]2O
EC50 (Estrogen receptor): 12.5 µM (active)

O=C(O)CCc1ccc(O)c(O)c1 [DIHYDROCAFFEIC ACID]
IC50 [26]: > 50 µM (not active)
